Assay results as given in patent publication EP3020398A1, “Compounds and formulations for reducing scarring” (NITTO DENKO CORPORATION, priority 2014, dated 2016).

How the values were obtained:
[1] = test system: full-thickness skin wounds; test: Scar index analysis (H&E histology) in mouse excisional wound model; assay type: in vivo, Mice; conditions: for scar index: topical, 5 daily treatments, harvest after 14 days
Method: The mouse model used here can be considered one of the simplest and standard murine models for investigating scar formation and wound healing.
Mice were weighed and then anaesthetized with 5% isoflurane in air for induction and then administered 2.5-3% of isoflurane in air for the remainder of the procedure. The animals were administered Tramal (Tramadol) intraperitoneally for analgesia at a 0.1 mg/kg dose. Before surgery the back of the mice was shaved and disinfected with isobetadine soap, rinsed with water and then swabbed with iodium alcohol.
Four full-thickness skin wounds were performed by cutting the folded skin on the back of the mice with a 7.5 mm x 3 mm elliptical biopsy punch (Elliptical Excisional Instrument, Acuderm Inc.). The skin on the back was raised and folded at the level of the vertebral column by using the thumb and the index finger. The folded skin was then placed on a wood tongue depressor with the animal laying on one side and two wounds were performed through the folded skin by using an elliptical biopsy punch (Elliptical Excisional Instrument, Acuderm Inc.), resulting in four wounds on the back skin: two on the right of the vertebral column and two on the left (Figure 1). The epidermis, the dermis and the fat tissue in the wound was carefully removed without touching other tissues. The wounds were then immediately treated with topical application of Composition 1 (Tv - vehicle), Composition 2 (T1 - 1 µM Lipoxin A4), or Composition 3 (T2 - 100 µM Lipoxin A4). The position of the wounds that were treated with active agent (T1 or T2) or treated with vehicle (Tv) was randomised. The wound site was then covered with OP-Film (Somed International, the Netherlands). The borders were then fixed with cyanoacrylate glue (Loctite).
The mice were allowed to recover from the surgical preparation in a clean cage with fresh bedding and under a heating lamp. To avoid possible contamination the mice were placed in individual cages containing a cellulose bed that was changed every 24 hours. Single caging avoids other mice from detaching the adhesive patches.
The treatment was repeated at the day 1, 2, 3 and 4 post-surgery for a total of 5 treatments in the first 5 days of healing. At each time point the mice were briefly anaesthetized with isoflurane and a new dose of ointment was injected through the film onto the wound, after which the animal was left to recover. At day 5 all films were removed.
After 14 days the mice were sacrificed under isoflurane anaesthesia by cervical dislocation to harvest the regenerated tissue. Skin samples were taken. The back of the mouse was carefully shaved paying careful attention to not touch the wound area. […]
The extent of scarring was measured in accordance with the procedure set out by Khorasani et al. (2011). […]

[2] = test system: full-thickness skin wounds; test: Collagen content and organisation (picrosirius red, bright-field and polarised light image analysis) in mouse excisional wound model; assay type: in vivo, Mice; conditions: wounds treated versus vehicle; Fig. 5
Method: Four full-thickness skin wounds were performed by cutting the folded skin on the back of the mice with a 7.5 mm x 3 mm elliptical biopsy punch (Elliptical Excisional Instrument, Acuderm Inc.). The skin on the back was raised and folded at the level of the vertebral column by using the thumb and the index finger. The folded skin was then placed on a wood tongue depressor with the animal laying on one side and two wounds were performed through the folded skin by using an elliptical biopsy punch (Elliptical Excisional Instrument, Acuderm Inc.), resulting in four wounds on the back skin: two on the right of the vertebral column and two on the left (Figure 1). […]
Collagen content and organisation were assessed as published by De Visscher et al. (2007, 2008). […] From this the collagen content and organisation can be measured according to the following method.
The total area (At) of the region of interest (ROI) and the area of the red stained material within that area (Ar) on the bright-field image. On the polarized light image, the area of the red illuminated bundles (Ab) is measured. The collagen density and organized collagen are calculated by the following formulae: Collagen density: (Ar/At) × 100 [formula] […]
Both are expressed as a percentage: collagen density as a percentage of the total area and organized collagen as a percentage of the collagen area.

CCCCC[C@H](O)/C=C/C=C\C=C\C=C\[C@@H](O)[C@@H](O)CCCC(=O)O [Lipoxin A4]
scar index ([1]; 1 µM Lipoxin A4 treatment, Figure 4): 905 µm | scar index ([1]; 100 µM Lipoxin A4 treatment, Figure 4): 511 µm | lower scarring than wounds treated with Control (quantitative scar index analysis) ([1]; Figure 3, n=5, p<0.008): 49% | scar index ([1]; Pooled Lipoxin A4 treatment, Figure 3, p=0.008 vs vehicle (Vehicle 1478 ± 334)): 748 µm | Collagen content (in words, versus vehicle) [2]: Lower collagen content was observed in wounds treated with vehicle | Collagen organisation (in words, versus vehicle) [2]: increased values
